In paper PMC10342134, “Isolation and Characterization of Poeciguamerin, a Peptide with Dual Analgesic and Anti-Thrombotic Activity from the Poecilobdella manillensis Leech” (International Journal of Molecular Sciences, 2023):
Bridge positions count the residues as written; N and C are the ends. Ends that are not written are not given here.

How the values were obtained:
FXIIa = molecular target: T1, FXIIa (Homo sapiens, UniProt P00748); assay: Effect on FXIIa activity (chromogenic substrate assay; Dixon plot Ki); assay type: biochemical; details: natural poeciguamerin 0-40 μM; FXIIa 10 nM; S-2302 0.2 mM; 50 mM Tris-HCl pH 7.4; 5 min, room temperature; OD405 for 10 min
T1 construct: purchased Enzyme Research Laboratories 1212a
T1 sequence (P00748 373-615 limits assumed): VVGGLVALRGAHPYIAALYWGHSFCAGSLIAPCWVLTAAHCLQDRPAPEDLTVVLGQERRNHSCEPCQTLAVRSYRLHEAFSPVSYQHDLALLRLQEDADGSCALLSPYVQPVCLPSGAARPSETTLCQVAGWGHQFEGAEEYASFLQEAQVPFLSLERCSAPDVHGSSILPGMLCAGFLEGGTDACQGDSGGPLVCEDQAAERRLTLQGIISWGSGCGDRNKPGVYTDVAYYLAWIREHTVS
T1 sequence (P00748 20-372 partner limits assumed): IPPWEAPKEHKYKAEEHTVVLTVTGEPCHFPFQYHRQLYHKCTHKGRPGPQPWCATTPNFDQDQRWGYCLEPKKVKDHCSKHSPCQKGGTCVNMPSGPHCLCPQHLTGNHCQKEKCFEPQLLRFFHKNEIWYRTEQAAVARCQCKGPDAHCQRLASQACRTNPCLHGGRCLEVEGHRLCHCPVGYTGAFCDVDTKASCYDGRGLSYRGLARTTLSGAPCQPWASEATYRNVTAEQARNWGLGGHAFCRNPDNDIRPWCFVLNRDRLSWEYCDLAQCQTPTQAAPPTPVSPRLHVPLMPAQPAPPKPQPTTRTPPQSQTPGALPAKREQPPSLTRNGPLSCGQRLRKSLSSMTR
Excerpt: (§1) Thus, we examined the effects of poeciguamerin on proteases such as FXIIa, kallikrein, trypsin, thrombin, FXa, and elastase using appropriate chromogenic substrates.
(§2) Figure 3 Effects of poeciguamerin on elastase and coagulation. Effects of natural poeciguamerin on elastase (A), FXIIa (B), kallikrein (C), FXa (D), trypsin (E), and thrombin (F) enzymatic activities.
(§3) We mixed poeciguamerin with specific chromogenic substrates and proteases to evaluate the effect of poeciguamerin on various enzymatic activities. […] The proteases and different concentrations of natural poeciguamerin (0, 0.5, 1, 2, 10, 20, 40 μM) were incubated in a total volume of 60 μL in buffer (50 mM Tris-HCl pH 7.4) for 5 min at room temperature. Subsequently, a buffer containing the appropriate enzyme substrate was added to a total volume of 100 μL. Using an enzyme marker, GEN CHS v1.09 software detected OD405 at 30-s intervals and recorded for 10 min to calculate enzyme kinetics.

trypsin = assay: Effect on trypsin activity (chromogenic substrate assay); assay type: biochemical; details: natural poeciguamerin 0-40 μM; trypsin 0.8 μM; S-2222 0.2 mM; 50 mM Tris-HCl pH 7.4; 5 min, room temperature; OD405 for 10 min
Description: as §2
(§4) We mixed poeciguamerin with specific chromogenic substrates and proteases to evaluate the effect of poeciguamerin on various enzymatic activities. These enzymes and substrates included FXIIa (10 nM, 1212a, Enzyme Research Laboratories, South Bend, IN, USA; substrate: 0.2 mM, S-2302, Chromogenix, Milan, Italy), kallikrein (80 nM, 1303, Enzyme Research Laboratories, South Bend, IN, USA; substrate: 0.2 mM, S-2302, Chromogenix, Milan, Italy), trypsin (0.8 μM, T2600000, Sigma-Aldrich, St. Louis, MO, USA; substrate: 0.2 mM, S-2222, Chromogenix, Milan, Italy), thrombin (10 nM, 1002a, Enzyme Research Laboratories, South Bend, IN, USA; substrate: 0.2 mM, S-2238, Chromogenix, Milan, Italy), FXa (20 nM, 1011, Enzyme Research Laboratories, South Bend, IN, USA; substrate: 0.2 mM, S-2222, Chromogenix, Milan, Italy), elastase (0.4 μM, E8140, Sigma-Aldrich, St. Louis, MO, USA; substrate: 0.2 mM, 324696, Sigma-Aldrich, St. Louis, MO, USA), and other proteases were affected. […] Using an enzyme marker, GEN CHS v1.09 software detected OD405 at 30-s intervals and recorded for 10 min to calculate enzyme kinetics.

FXa = assay: Effect on FXa activity (chromogenic substrate assay); assay type: biochemical; details: natural poeciguamerin 0-40 μM; FXa 20 nM; S-2222 0.2 mM; 50 mM Tris-HCl pH 7.4; 5 min, room temperature; OD405 for 10 min
Description: as §2, §4

thrombin = assay: Effect on thrombin activity (chromogenic substrate assay); assay type: biochemical; details: natural poeciguamerin 0-40 μM; thrombin 10 nM; S-2238 0.2 mM; 50 mM Tris-HCl pH 7.4; 5 min, room temperature; OD405 for 10 min
Description: as §2, §4

kallikrein = molecular target: T2, kallikrein (Homo sapiens, UniProt P03952); assay: Effect on kallikrein activity (chromogenic substrate assay; Dixon plot Ki); assay type: biochemical; details: natural poeciguamerin 0-40 μM; kallikrein 80 nM; S-2302 0.2 mM; 50 mM Tris-HCl pH 7.4; 5 min, room temperature; OD405 for 10 min
T2 construct: purchased Enzyme Research Laboratories 1303
Excerpt: as §1, §2, §3

elastase = molecular target: T3, elastase (Homo sapiens, UniProt P08246); assay: Effect on elastase activity (chromogenic substrate assay; Dixon plot Ki); assay type: biochemical
T3 construct: purchased Sigma-Aldrich E8140
T3 sequence (P08246 30-267): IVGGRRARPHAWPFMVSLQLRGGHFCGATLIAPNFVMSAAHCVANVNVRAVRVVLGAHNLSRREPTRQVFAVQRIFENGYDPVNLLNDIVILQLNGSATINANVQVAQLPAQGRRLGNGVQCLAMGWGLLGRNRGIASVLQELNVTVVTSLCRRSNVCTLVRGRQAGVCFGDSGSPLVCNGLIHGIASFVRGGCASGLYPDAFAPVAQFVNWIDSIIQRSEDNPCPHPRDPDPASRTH
Excerpt: as §1, §2, §3

mice [1] = assay: Foot-licking mouse model (elastase-induced pain); assay type: in vivo, mouse (female C57BL/6J); details: poeciguamerin 0, 6, 12 mg/kg i.v. 10 min before 25 μL elastase (6 mg/kg) in right hind paw; phase I 0–10 min and phase II 10–30 min; n = 5 per group
Description: (§5) To evaluate the biological activity of poeciguamerin, we used the foot-licking mouse model and the tail-withdrawal mouse model. In the foot-licking mouse model, we placed the mice in a hot plate apparatus at a temperature of 55 ± 0.5 °C. The pain thresholds of the mice were measured twice every 15 min and hind paw licking was used as the observation parameter. Female mice showing a pain response within 10–30 s were selected and randomly divided into four groups. In the control group, 25 μL elastase (6 mg/kg) was injected into the base of the right hind paw, while in the experimental group, poeciguamerin (0, 6, 12 mg/kg) was injected intravenously 10 min before the elastase injection. […] The cumulative number of foot licks during the first phase (0–10 min) (Figure 5A) and the second phase (10–30 min) (Figure 5B) was recorded. […] The tails of the mice were stretched in hot water at 45 °C and the time of tail flicking was recorded.
(§6) Figure 5 Effects of poeciguamerin on elastase or hot water bath-induced pain. […] The total time mice spent licking the paw was recorded during the I phase (0–10 min) (A) and the II phase (10–30 min) (B). n = 5 per group. Data are expressed as mean ± SEM and were subjected to an unpaired t-test, *** p < 0.001. […] The tails of the mice were stretched in hot water at 45 °C and the time of the tail flick was recorded (C). n = 5 per group. […]

mice [2] = assay: Tail withdrawal mouse model (hot water bath); assay type: in vivo, mouse (female C57BL/6J); details: poeciguamerin 0, 6, 12 mg/kg, tail vein; water 45 °C; maximum time 15 s; n = 5 per group
Description: as §5, §6

T2 sequence (P03952 391-638 limits assumed): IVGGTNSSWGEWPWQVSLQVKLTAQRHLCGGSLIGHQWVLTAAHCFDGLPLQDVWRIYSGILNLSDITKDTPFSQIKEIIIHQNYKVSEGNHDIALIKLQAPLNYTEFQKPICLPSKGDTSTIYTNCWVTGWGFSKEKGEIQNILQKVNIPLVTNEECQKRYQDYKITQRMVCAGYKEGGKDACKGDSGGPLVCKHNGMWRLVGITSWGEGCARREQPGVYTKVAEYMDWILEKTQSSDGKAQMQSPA
T2 sequence (P03952 20-390 partner limits assumed): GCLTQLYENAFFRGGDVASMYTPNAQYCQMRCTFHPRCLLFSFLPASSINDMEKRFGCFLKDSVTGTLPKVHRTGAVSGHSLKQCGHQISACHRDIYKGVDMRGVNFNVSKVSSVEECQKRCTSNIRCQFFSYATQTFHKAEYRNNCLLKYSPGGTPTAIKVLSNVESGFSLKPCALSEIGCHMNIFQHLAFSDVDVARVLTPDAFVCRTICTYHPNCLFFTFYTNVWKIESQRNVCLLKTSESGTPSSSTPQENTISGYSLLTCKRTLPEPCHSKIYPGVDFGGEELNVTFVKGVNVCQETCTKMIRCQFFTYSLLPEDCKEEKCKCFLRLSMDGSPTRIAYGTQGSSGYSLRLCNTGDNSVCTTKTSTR

VDEKAEVTDDLCGDKTCSGAQVCQNDACVCSPVRCMIMCPNGFKLDENGCEYPCSCA (disulfide 12-23, 17-28, 30-50, 35-54, 39-56) [poeciguamerin]
effect on FXIIa activity (FXIIa): slight inhibition | effect on trypsin activity (trypsin): no inhibitory effects | effect on FXa activity (FXa): no inhibitory effects | effect on thrombin activity (thrombin): no inhibitory effects | effect on kallikrein activity (kallikrein): slight inhibition | effect on elastase activity (elastase; natural poeciguamerin 0-40 μM, elastase 0.4 μM, substrate 324696 0.2 mM, 50 mM Tris-HCl pH 7.4, 5 min, room temperature, OD405 for 10 min): dose-dependent inhibition | inhibition of elastase activity by chromatographic peak fractions (elastase; peak fractions of P. manillensis salivary gland secretions (Sephadex G-50, RP-HPLC C8, Mono S FPLC), elastase chromogenic substrate assay): significantly inhibited elastase activity | effect on elastase-induced pain (cumulative foot licks) (mice [1]): attenuated this painful response | effect on hot water-induced pain response (tail withdrawal latency) (mice [2]): attenuated this pain response
